Measured values reported in patent US20250282799A1, “SUBSTITUTED PYRIDO[4,3-d]PYRIMIDINES AS KRAS MODULATORS” (Alterome Therapeutics, Inc., priority 2023, published 2025).

Tests used:
[1] = system: KRAS G12V dependent lung adenocarcinoma cell line, NCI-H441; experiment: Cellular pERK (Thr202/Tyr204) FRET/HTRF assay; format: cell-based; conditions: Homo sapiens
Outline: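 NCI-H441 cells (KRAS G12V) were seeded and grown overnight at 37 °C, 5% CO2, then treated with compound in DMSO for 1 hr. Lysates were probed with a Eu3+-cryptate/d2 antibody sandwich against pERK1/2 Thr202/Tyr204 and read by HTRF at 665 nm; IC50 from curve fitting.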

[2] = Pharmacokinetic evaluation, single dosing (oral and intravenous) in rats; format: in vivo, male Sprague-Dawley rats; design: unit not given here; conditions: rat, plasma
Protocol: Pharmacokinetic profile for test compound was measured by single dosing in male Sprague-Dawley rats. Animal weights were typically over 200 grams, and animals were allowed to acclimate to their new environment for at least 3 days prior to the initiation of any studies. One set of animals was dosed intravenous with test compound, 2 mg/kg in 20% PEG400, 10% HS-15 Solutol, 70% 50 mM citrate buffer (pH 4.0). Intravenous dosing solution concentration was 1.0 mg/mL. Time of blood sampling was 5 minutes, 15 minutes, 30 minutes, 1 hour, 2 hours, 4 hours, 8 hours, and 24 hours following intravenous dosing. Another set of animals was dosed orally with test compound, 30 mg/kg in 20% PEG400, 10% HS-15 Solutol, 70% 50 mM citrate buffer (pH 4.0). Oral dosing solution concentration was 3.0 mg/mL. Time of blood sampling was 15 minutes, 30 minutes, 1 hour, 2 hours, 4 hours, 8 hours, and 24 hours following oral dosing. Blood samples (˜0.2 mL/sample) were collected via jugular vein and placed in tubes containing Heparin-Na. The blood samples in tubes were mixed and then placed on wet ice prior to centrifugation for plasma. The blood samples were centrifuged at 4000 g for 5 minutes at 4° C. to obtain plasma. The obtained plasma was separated and stored frozen at approximately −80° C.
All the plasma samples were analyzed using a Shimadzu (DGU-405) HPLC with an API 6500+MS/MS system following the manufacturer's instructions. All the analytes were detected with positive-mode electrospray ionization (ES+). A standard curve for each test compound was generated and used to measure test compound concentrations in the rat plasma samples. Based on the time course sampling, an area under the curve (AUC) was calculated for the oral group and intravenous group. The percentage of rat bioavailability is calculated based on the equation shown below.
where F is bioavailability, AUCPO is area under curve of oral dosing, AUCIV is area under curve of intravenous dosing, DoseIV is the intravenous dose and DosePO is the oral dose. The oral dosing for the experiments presented in Table 5 was performed at 10 mg/kg unless noted otherwise.

KRAS (G12D)/CRAF = KRAS (G12D)/CRAF (Homo sapiens (Human), UniProt P01116, G12D); experiment: TR-FRET biochemical KRAS:CRAF protein:protein interaction assay, KRAS (G12D); format: binding; conditions: GMPPNP loaded Biotin-KRAS (G12D), FLAG CRAF RBD; read-out: TR-Fret_PPI KRAS (G12D)/CRAF IC50
Protocol: (§1) The effect of test compounds on KRAS and CRAF protein: protein interaction (PPI) was measured by time resolved fluorescence resonance energy transfer (TR-FRET) Ras binding domain (RBD) assay, which uses a signal generated through fluorescent resonance energy transfer between a donor and an acceptor molecule when in close proximity to each other. Interference from buffer, media, etc. is reduced by dual-wavelength detection; the energy pulse from the excitation source is followed by a time delay, which allows interfering short-lived fluorescence to decay (Degorce et al. 2009).
(§2) The KRAS: CRAF PPI assay can be utilized to identify KRAS ‘ON’ state inhibitors, as the KRAS protein is loaded with GMPPNP (a non-hydrolyzable GTP analog), which represents the active KRAS ‘ON’ state. FLAG-tagged CRAF RBD binding to the GMPPNP loaded biotin-tagged KRAS will result in a fluorescence energy transfer from the donor (Tb-anti-FLAG, emission 620 nm) to the acceptor (SA-XL665, emission 665 nm). Disruption of KRAS and CRAF binding will reduce the TR-FRET signal.
(§3) Test compound was dissolved in DMSO to create a 1 mM stock solution. A 45 μL volume of stock solution was transferred to a 384well polypropylene plate. A 3fold, 10point dilution was performed by transferring 15 μL of test compound solution into 30 μL of DMSO.
(§4) Assay buffer A was prepared with […] Hepes, pH7.3, 0.002% Tween 20, 0.1% BSA, […] NaCl, 5 mM MgCl2, and 10 uM GMP-PNP. 4× KRAS Solution was prepared with 80 nM of Biotin-KRAS (G12D/V), GMPPNP loaded or Biotin-KRAS (WT), GMPPNP loaded protein in assay buffer A. 4× Raf RBD Solution was prepared with 400 nM FLAG CRAF RBD in assay buffer A. 2× Detection Mixture was prepared with 2 nM Tb-anti-FLAG antibody and 10 nM and 10 nM SA-XL665 in assay buffer A.
(§5) A volume of 100 nL of 100× test compound working solution or DMSO vehicle control solution was dispensed to each well (duplicate for each concentration) of a 384-well ProxiPlate Plus assay plate. A volume of 2.5 μL of 4× KRAS Solution was added to each well of the assay plate for a final concentration of 20 nM Biotin-KRAS (G12D/V),GMPPNP loaded or 20 nM Biotin-KRAS (WT), GMPPNP. For low control, add 2.5 μL of assay buffer (no KRAS protein). Pre-incubate assay plate for 30 minutes at room temperature. Following pre-incubation of test compound or DMSO with Biotin-KRAS (G12D/V),GMPPNP loaded or Biotin-KRAS (WT),GMPPNP, a volume of 2.5 μL of 4× FLAG cRAF RBD Solution was added to each well of the assay plate for a final concentration of 100 nM FLAG CRAF RBD. The assay plate was subjected to centrifuge at 1000 rpm for 1 minute and pre-incubate assay plate for 150 minutes at room temperature. Following the pre-incubation with FLAG cRAF RBD, a volume of 5 μl of 2× Detection Mixture was added to each well of the assay plate for a final concentration of 1 nM Tb-anti-FLAG and 5 nM SA-XL665. The assay plate was centrifuged at 1000 rpm for 1 minute and incubated for 90 minutes at room temperature. TR-FRET signal was measured on a BioTek Synergy Neo2 microplate reader (excitation at 340 nm, emission at 665 nn and 620 nm).
(§6) TR-FRET ratios were calculated by dividing the acceptor emission value (665 nm) by the donor emission value (620 nm) for each sample.
(§7) Percent inhibition was calculated by multiplying the normalized TR-FRET ratio by 100, where TR-FRET ratio^HIGH was the TR-FRET ratio obtained from wells with 1% DMSO and complete reaction mixture, TR-FRET ratio^LOW was the ratio obtained from wells with 1% DMSO and reaction mixture without KRAS protein and TR-FRET ratio^SAMPLE was the TR-FRET ratio from wells with test compound and complete reaction mixture. The IC50 values were calculated from normalized TR-FRET ratios with the Levenberg-Marquardt 4 parameter fitting procedure.
(§8) This assay quantifies the interaction of a KRAS mutant protein (e.g., G12V) with the CRAF Ras-binding domain (RBD). […]

KRAS (G12V)/CRAF = KRAS (G12V)/CRAF (Homo sapiens (Human), UniProt P01116, G12V); experiment: TR-FRET biochemical KRAS:CRAF protein:protein interaction assay, KRAS (G12V); format: binding; conditions: GMPPNP loaded Biotin-KRAS (G12V), FLAG CRAF RBD; read-out: TR-Fret_PPI KRAS (G12V)/CRAF IC50
Protocol: as §1, §2, §3, §4, §5, §6, §7, §8

[3] = NCI-H441, cellular pERK (Thr202/Tyr204) HTRF, NCI-H441 cells
[4] = NCI-H441, pERK HTRF, NCI-H441 cells (KRAS G12V)

Chain of KRAS (G12V)/CRAF (P01116-2 other isoform, or with tags, fused parts or gaps G12V): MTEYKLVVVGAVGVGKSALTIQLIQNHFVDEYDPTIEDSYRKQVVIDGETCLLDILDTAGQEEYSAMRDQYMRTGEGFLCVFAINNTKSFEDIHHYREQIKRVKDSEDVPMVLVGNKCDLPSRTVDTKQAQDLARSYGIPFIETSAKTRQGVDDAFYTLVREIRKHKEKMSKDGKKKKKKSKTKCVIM
Chain of KRAS (G12D)/CRAF (P01116-2 other isoform, or with tags, fused parts or gaps G12D): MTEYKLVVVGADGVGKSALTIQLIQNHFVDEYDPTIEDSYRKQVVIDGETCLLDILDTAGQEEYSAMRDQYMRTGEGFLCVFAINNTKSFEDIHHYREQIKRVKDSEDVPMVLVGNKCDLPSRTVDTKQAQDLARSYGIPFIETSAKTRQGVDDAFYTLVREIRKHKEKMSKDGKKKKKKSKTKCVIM

Structure (SMILES) | IC50 [1, 3] [µM] | IV (dose 2 mg/kg) (AUC/D) (h*mg/mL) [2] | PO (dose 10 mg/kg) (AUC/D) (h*mg/mL) [2] | IC50 [1, 4] [µM] | IC50 (KRAS (G12D)/CRAF) [µM] | IC50 (KRAS (G12V)/CRAF) [µM]
[2H]C([2H])(Oc1nc(N2CCCC[C@H]3[C@H](F)[C@H]32)c2cnc(-c3cc(O)cc4ccc(F)c(C#C)c34)c(F)c2n1)[C@@]12CCCN1C[C@H](F)C2 [Example 216, 5-ethynyl-6-fluoro-4-(8-fluoro-4-((1S,7R,8S)-8-fluoro-2-azabicyclo[5.1.0]octan-2-yl)-2-(((2R,7aS)-2-fluorotetrahydro-1H-pyrrolizin-7a(5H)-yl)methoxy-d2)pyrido[4,3-d]pyrimidin-7-yl)naphthalen-2-ol] | < 0.05 | 96 | 0.0 |  |  | 
[2H]C([2H])([2H])Oc1c(F)ccc2cc(N)cc(-c3ncc4c(N5CCCO[C@H]6[C@H](F)[C@H]65)nc(OC([2H])([2H])[C@@]56CCCN5C[C@H](F)C6)nc4c3F)c12 [Example 91, 6-Fluoro-4-(8-fluoro-4-((1R,7S,8R)-8-fluoro-2-oxa-6-azabicyclo[5.1.0]octan-6-yl)-2-(((2R,7aS)-2-fluorotetrahydro-1H-pyrrolizin-7a(5H)-yl)methoxy-d2)pyrido[4,3-d]pyrimidin-7-yl)-5-(methoxy-d′3) naphthalen-2-amine] |  | 609 | 142 | < 0.05 |  | 
[2H]C([2H])(Oc1nc(N2CCOC[C@H]3[C@@H](Cl)[C@H]32)c2cnc(-c3cc(N)cc4ccc(F)c(C#C)c34)c(F)c2n1)[C@@]12CCCN1C[C@H](F)C2 [Example 247, 4-(4-((1S,7S,8R)-8-chloro-5-oxa-2-azabicyclo[5.1.0]octan-2-yl)-8-fluoro-2-(((2R,7aS)-2-fluorotetrahydro-1H-pyrrolizin-7a(5H)-yl)methoxy-d2)pyrido[4,3-d]pyrimidin-7-yl)-5-ethynyl-6-fluoronaphthalen-2-amine] | 0.05 to 0.5 |  |  |  | 1.39 | 3
[2H]C([2H])(Oc1nc(N2CCCC[C@H]3C[C@H]32)c2cnc(-c3cc(N)cc4cc(F)c(F)c(C#C)c34)c(F)c2n1)[C@@]12CCCN1C[C@H](F)C2 [Example 8, 4-(4-((1R,7S)-2-azabicyclo[5.1.0]octan-2-yl)-8-fluoro-2-(((2R,7aS)-2-fluorotetrahydro-1H-pyrrolizin-7a(5H)-yl)methoxy-d2)pyrido[4,3-d]pyrimidin-7-yl)-5-ethynyl-6,7-difluoronaphthalen-2-amine] |  |  |  | < 0.05 | 0.0275 | 0.213
[2H]C([2H])(Oc1nc(N2CCOC[C@H]3[C@H](Cl)[C@H]32)c2cnc(-c3cc(N)cc4ccc(F)c(C#C)c34)c(F)c2n1)[C@@]12CCCN1C[C@H](F)C2 [Example 248, 4-(4-((1S,7S,8S)-8-Chloro-5-oxa-2-azabicyclo[5.1.0]octan-2-yl)-8-fluoro-2-(((2R,7aS)-2-fluorotetrahydro-1H-pyrrolizin-7a(5H)-yl)methoxy-d2)pyrido[4,3-d]pyrimidin-7-yl)-5-ethynyl-6-fluoronaphthalen-2-amine] | < 0.05 |  |  |  | 0.00825 | 0.0526
[2H]C([2H])(Oc1nc(N2CC=CC[C@H]3[C@H](F)[C@H]32)c2cnc(-c3cc(N)cc4cc(F)c(F)c(C#C)c34)c(F)c2n1)[C@@]12CCCN1C[C@H](F)C2 [Example 137, 5-Ethynyl-6,7-difluoro-4-(8-fluoro-4-((1S,7R,8S)-8-fluoro-2-azabicyclo[5.1.0]oct-4-en-2-yl)-2-(((2R,7aS)-2-fluorotetrahydro-1H-pyrrolizin-7a(5H)-yl)methoxy-d2)pyrido[4,3-d]pyrimidin-7-yl)naphthalen-2-amine] | < 0.05 |  |  |  | 0.0274 | 0.155
[2H]C([2H])(Oc1nc(N2CCOC[C@@H]3[C@H](Cl)[C@@H]32)c2cnc(-c3cc(N)cc4ccc(F)c(C#C)c34)c(F)c2n1)[C@@]12CCCN1C[C@H](F)C2 [Example 250, 4-(4-((1R,7R,8S)-8-chloro-5-oxa-2-azabicyclo[5.1.0]octan-2-yl)-8-fluoro-2-(((2R,7aS)-2-fluorotetrahydro-1H-pyrrolizin-7a(5H)-yl)methoxy-d2)pyrido[4,3-d]pyrimidin-7-yl)-5-ethynyl-6-fluoronaphthalen-2-amine] | 0.05 to 0.5 |  |  |  | 1.67 | 3
[2H]C([2H])(Oc1nc(N2CCOC[C@@H]3[C@@H](Cl)[C@@H]32)c2cnc(-c3cc(N)cc4ccc(F)c(C#C)c34)c(F)c2n1)[C@@]12CCCN1C[C@H](F)C2 [Example 249, 4-(4-((1R,7R,8R)-8-chloro-5-oxa-2-azabicyclo[5.1.0]octan-2-yl)-8-fluoro-2-(((2R,7aS)-2-fluorotetrahydro-1H-pyrrolizin-7a(5H)-yl)methoxy-d2)pyrido[4,3-d]pyrimidin-7-yl)-5-ethynyl-6-fluoronaphthalen-2-amine] | < 0.05 |  |  |  | 0.648 | 3
